“Also recorded” adds a separate entry of the source.

Experimental findings from patent US20070122422A1, “Sodium-independent small neutral amino acid transporter transporting L- and D- amino acids” (Japan Science and Technology Corporation, priority 2000, published 2007) are described below.

Test [1] concerns the target T1, asc-1 of mouse (co-expressed with 4F2hc of mouse) (Mus musculus, UniProt P63115).
T1 construct: expressed in transfected cells; host or cells: Xenopus oocytes injected with cRNA
T1 sequence (P63115 1-530): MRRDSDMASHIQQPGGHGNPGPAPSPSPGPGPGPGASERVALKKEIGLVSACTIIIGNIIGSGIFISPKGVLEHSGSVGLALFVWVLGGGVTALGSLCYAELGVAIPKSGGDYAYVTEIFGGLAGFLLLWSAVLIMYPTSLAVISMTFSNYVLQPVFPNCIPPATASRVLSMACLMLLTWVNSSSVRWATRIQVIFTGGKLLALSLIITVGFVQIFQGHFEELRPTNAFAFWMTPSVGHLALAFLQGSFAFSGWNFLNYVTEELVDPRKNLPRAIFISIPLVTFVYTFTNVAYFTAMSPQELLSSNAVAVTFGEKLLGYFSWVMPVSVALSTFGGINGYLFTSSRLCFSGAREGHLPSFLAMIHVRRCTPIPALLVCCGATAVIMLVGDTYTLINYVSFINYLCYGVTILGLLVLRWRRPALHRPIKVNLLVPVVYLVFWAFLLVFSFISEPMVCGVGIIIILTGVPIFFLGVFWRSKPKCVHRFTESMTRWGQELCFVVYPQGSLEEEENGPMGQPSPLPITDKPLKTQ
T1 sequence (P10852 1-526 partner): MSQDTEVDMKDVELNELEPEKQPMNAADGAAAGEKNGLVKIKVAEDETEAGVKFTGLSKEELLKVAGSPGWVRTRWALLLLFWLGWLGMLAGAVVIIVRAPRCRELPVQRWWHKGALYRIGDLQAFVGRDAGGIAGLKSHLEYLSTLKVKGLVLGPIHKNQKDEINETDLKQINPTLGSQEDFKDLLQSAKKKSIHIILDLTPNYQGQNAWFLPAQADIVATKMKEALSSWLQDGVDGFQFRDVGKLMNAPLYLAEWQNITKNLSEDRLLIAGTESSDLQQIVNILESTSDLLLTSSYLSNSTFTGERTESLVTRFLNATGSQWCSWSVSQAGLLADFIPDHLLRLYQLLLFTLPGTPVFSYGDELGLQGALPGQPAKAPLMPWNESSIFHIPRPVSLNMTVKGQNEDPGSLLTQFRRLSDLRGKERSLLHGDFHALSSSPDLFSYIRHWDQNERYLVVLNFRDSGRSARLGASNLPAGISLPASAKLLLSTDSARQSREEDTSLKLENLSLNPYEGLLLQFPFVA
Put plainly: Incorporation of radiolabeled amino acids and analogs by oocytes co-expressing asc-1 and 4F2hc. The class given is cell-based. The note with it: for incorporation into the oocytes as substrate: radiolabeled substrate, oocytes expressing both asc-1 and 4F2hc, Na+-free uptake solution; for transport by asc-1 (affinity in words): summary statement, asc-1 co-existing with 4F2hc. A digest of the protocol: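 Xenopus oocytes injected with mouse asc-1 (12 ng) and 4F2hc (13 ng) cRNA, cultured 3 days. Uptake over 30 minutes in Na+-free buffer, pH 7.4, with 100 μM ^14C-alanine or other radiolabeled amino acids/analogs, measured by counting incorporated radioactivity; Na+, Cl− and pH effects tested via substituted solutions.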

The target of test [2] is T1, asc-1 of mouse (co-expressed with 4F2hc of mouse). As to the kind of experiment: Release of preloaded 14C-alanine from oocytes co-expressing asc-1 and 4F2hc on extracellular addition of compound. The class given is cell-based. The following applies: for increase in the release of preloaded 14C-alanine: 100 μM compound added to Na+-free uptake solution, room temperature. As to the method: Release of a preloaded ^14C-alanine mediated by asc-1 was checked in the oocytes into which both asc-1 gene cRNA and 4F2hc gene cRNA of mouse were injected together. ^14C-Alanine (−3nCi) of 100 μM in an amount of 100 nl was injected into the oocytes into which both asc-1 gene cRNA and 4F2hc gene cRNA of mouse were injected together, washed with an ice-cooled Na^+-free uptake solution containing no alanine and transferred to a Na^+-free uptake solution to which alanine (100 μM) was added or not added at room temperature (18° C.-22° C.) and the amount of ^14C-alanine released outside the cells was measured.
In oocytes into which cRNA of asc-1 gene and cRNA of 4F2hc gene of mouse were injected together, release of preloaded ^14C-alanine mediated by asc-1 was investigated whereupon it was checked whether the compound which inhibited the incorporation of ^14C-alanine mediated by asc-1 was a substrate of asc-1.
^14C-Alanine (−3nCi) of 100 μM in an amount of 100 nl was injected into the oocytes into which both asc-1 gene cRNA and 4F2hc gene cRNA of mouse were injected together, washed with an ice-cooled Na^+-free uptake solution containing no alanine and transferred to a Na^+-free uptake solution to which amino acid or amino acid analog (100 μM) was added or not added at room temperature (18° C.-22° C.) and the amount of ^14C-alanine released outside the cells was measured.
Black bars in FIG. 18 are the case where there were used oocytes into which cRNA of mouse asc-1 gene and cRNA of mouse 4F2hc gene were injected while white bars are the case where there were used oocytes into which water was injected instead of cRNA as a control.

For `C[C@H](N)C(=O)O` [L-Alanine], in test [1], the “influence of pH on incorporation of alanine” value is given as “no significant dependency on pH”, the “incorporation into the oocytes as substrate” value is reported as “big incorporation” and the “transport by asc-1 (affinity in words)” value was “highly affinitive”. The “influence of salt on incorporation of alanine” value in test [1] (choline changed to sodium, chlorine ion changed to gluconic acid ion) was “does no affect”. For the same compound, in test [2], the “increase in the release of preloaded 14C-alanine” value is given as “significantly increased; also recorded: high increase”. The “release of 14C-alanine without alanine outside the cells” value in test [2] (alanine not added to Na+-free uptake solution) is “significant release”.
For the compound `N[C@@H](CO)C(=O)O` [L-Serine], in test [1], the “incorporation into the oocytes as substrate” value is recorded as “big incorporation” and the “transport by asc-1 (affinity in words)” value is reported as “highly affinitive”. Besides, the “increase in the release of preloaded 14C-alanine” value in test [2] is reported as “high increase”.
